# Test results taken from article PMC10110569, “Structure and mechanism of the alkane-oxidizing enzyme AlkB” (Nature Communications, 2023).
# T1: FtAlkB (Fontimonas thermophila, UniProt A0A1I2KHB9)
# T1 construct: gene SAMN04488120_1209; residues 4-399, codon optimized, pRSF vector, E. coli BL21 (DE3), 3C protease digestion (tag cut), DDM-solubilized; 45 kD; cryo-EM with nanobody AP32; lysate assays with AlkG and AlkT as redox partners
# T1 sequence (A0A1I2KHB9 4-399): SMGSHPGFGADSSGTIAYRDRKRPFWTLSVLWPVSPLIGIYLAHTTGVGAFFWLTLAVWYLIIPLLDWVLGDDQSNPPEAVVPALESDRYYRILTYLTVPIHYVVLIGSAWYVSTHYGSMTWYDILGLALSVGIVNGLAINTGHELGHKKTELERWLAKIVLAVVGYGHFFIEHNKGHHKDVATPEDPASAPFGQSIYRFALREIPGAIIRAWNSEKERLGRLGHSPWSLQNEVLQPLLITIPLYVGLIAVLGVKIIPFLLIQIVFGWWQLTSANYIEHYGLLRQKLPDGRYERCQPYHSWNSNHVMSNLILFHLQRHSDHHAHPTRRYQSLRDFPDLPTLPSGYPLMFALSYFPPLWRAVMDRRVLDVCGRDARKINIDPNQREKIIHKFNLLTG
# T2: Fontimonas thermophila alkane monooxygenase AlkB (FtAlkB), amino acids 4-399 (Fontimonas thermophila)
# T2 construct: Alkane monooxygenase AlkB of Fontimonas thermophila, amino acids 4-399, codon optimized, in pRSF vector; Membrane protein kept in DDM (0.02% in SEC buffer); source: E. coli BL21 (DE3), solubilized in 1% DDM, purified (cobalt resin, 3C protease digestion, SEC)
# T2 chain: T1 sequence (A0A1I2KHB9 4-399)
# B1: Nanobody AP32 (anti-FtAlkB nanobody) (VHH)
# VHH: QVQLQESGGGLVQAGGSLRLSCAASGTISRYWTMGWYRQAPGKERELVAGISEGGSTNYADSVKGRFTISRDNAKNTVYLQMNSLKPEDTAVYYCAVTYRGPWFNRDPHYYWGQGTQVTVSS
# notes: Synthetic nanobody from a library after three runs of selection; the model was started from the nanobody of PDB 7SL8 with the CDRs rebuilt, so 7SL8 is not this nanobody; also called FtAlkB-specific nanobody; source: E. coli BL21 (DE3), purified
# How the values were obtained:
# [1] = molecular target: T1, FtAlkB; assay: GC-MS alkane hydroxylation assay, purified enzyme; format: biochemical; details: purified AlkG, maize ferredoxin reductase, NADPH; 37 °C
# [2] = molecular target: T2, Fontimonas thermophila alkane …; assay: cryo-EM structure; FtAlkB-nanobody AP32 complex in 20 mM HEPES pH 7.4, 150 mM NaCl, 0.02% DDM; single-particle cryo-EM, 3.59 Å for FtAlkB-nanobody (3.45 Å with a mask on FtAlkB only); details: both partners purified
Molecule,"GC-MS alkane hydroxylation assay, purified enzyme [1]",binding result [2]
CCCCCCCC [octane],FtAlkB displayed robust alkane hydroxylase activities on a model alkane octane,
B1,,binds
